Reference: US20060148725A1, “Selective 11beta HSD inhibitors and methods of use thereof” (The Miriam Hospital, priority 2001, published 2006)

Legend:
[1] = target: 11β-HSD1 Reductase (Rattus norvegicus, UniProt P16232); assay: Metabolism of 3H-11-dehydrocorticosterone back to corticosterone by aortic rings; type: cell-based; design: from tissue; host or cells: rat (Sprague-Dawley) thoracic aortic rings, endothelium intact; settings: 24 hours
Method: (§1) The effects of 11β-HSD1 and 11β-HSD2 antisense on the inter-conversion of ^3H-corticosterone and ^3H-11-dehydro-corticosterone by aortic rings was also determined. Rings (2-3 mm) obtained in a similar manner as those in the contraction studies, were incubated in 1 ml DMEM/F12 media containing 1% FBS at 37° C. under 95% O2-5% CO2 in 24-well culture plates. Rings were incubated for 24 hours with: • (i) ^3H-corticosterone (10 nmol/L)±11β-HSD2 or 11β-HSD1 antisense (3 μmol/L); control groups received nonsense oligomers. The amount of ^3H-11-dehydro-corticqsterone in the incubation medium after 24 hrs was then measured. The effects of 11β-HSD1 antisense/nonsense were measured in quadruplicate (n=6 aortic rings per well) and the effects of 11β-HSD2 antisense/nonsense in duplicate (n=8 aortic rings per well), • (ii) ^3H-11-dehydro-corticosterone (10 nmol/L)±11β-HSD1 antisense (3 μmol/L); this experiment was performed in duplicate (n=10 aortic rings per well). Control groups were incubated with the appropriate nonsense oligomer. ^3H-corticosterone in the incubation medium after 24 hrs was then measured. In this experiment, aortic rings were also analyzed for ^3H-corticosterone content. Rings from duplicate incubations (total n=20) were blotted dry, pooled and homogenized in 50 % methanol using a Polytron. […]

[2] = tested on: 11β-HSD1; assay: RT-PCR analysis of 11β-HSD1 expression in cultured vascular cells; type: cell-based; settings: cultured rat vascular endothelial and smooth muscle cells
From the text: (§2) Since 11β-HSD2 appears to exist only in endothelial cells, this observation supports a role for the action of glucocorticoids in affecting endothelial cell function. […] Further experiments to determine whether antisense oligomers down-regulate mRNA and protein expression of their respective 11β-HSD isoform under conditions in which they enhance contractile responses in aortic rings will be done.

[3] = tested on: 11β-HSD1; assay: Conversion of 3H-corticosterone to 11-dehydrocorticosterone by aortic rings, 11β-HSD1 antisense; type: cell-based, rat; settings: 3H-corticosterone 10 nM, antisense 3 μM, 24 hrs
Method: as §1

[4] = tested on: rat aortic rings; assay: Contractile response of rat aortic rings to phenylephrine; type: cell-based; settings: rings incubated 24 hours with corticosterone 10 nmol/L and antisense 3 μmol/L; graded phenylephrine
Method: Male Sprague-Dawley (1 50-200 g) rats were anesthetized with pentobarbital (50 mg/kg IP), and a median sternotomy was performed followed by the rapid removal of the thoracic aorta. The adventitia was removed, but the endothelium was left intact. The aorta was cut into 2-3 mm rings and individual rings were placed into a single well of a twenty four well culture plate and incubated at 37° C. under 95% O2-5% CO2. Each well contained 1 mL of DMEM/F12 containing 1% fetal bovine serum, streptomycin (100 μg/ml), penicillin (100 units/ml) and amphotericin (0.25 μg/ml). […]
For contraction measurements, aortic rings were suspended by tungsten wires with 1 g of tension and placed in a vessel bath containing serum free DMEM/F12 media at 37° C. aerated with 95% O2-5% CO2, at pH 7.4. […] The intensity of contraction was assessed by use of a Narishige micromanipulator and model FT03 force transducer (Grass Instrument Co. West Warwick, R.I.). Measurements were recorded on computer using the Labview 4.1 Virtual Instrument System (National Instruments, Austin, Tex.).

[5] = tested on: 11β-HSD2; assay: Conversion of 3H-corticosterone to 11-dehydrocorticosterone by aortic rings, 11β-HSD2 antisense; type: cell-based, rat; settings: antisense 3 μM, 24 hrs
Method: as §1

[6] = tested on: 11β-HSD2; assay: RT-PCR analysis of 11β-HSD2 expression in cultured vascular cells; type: cell-based; settings: cultured rat vascular endothelial and smooth muscle cells
From the text: as §2

Chain of 11β-HSD1 Reductase (P16232 whole entry): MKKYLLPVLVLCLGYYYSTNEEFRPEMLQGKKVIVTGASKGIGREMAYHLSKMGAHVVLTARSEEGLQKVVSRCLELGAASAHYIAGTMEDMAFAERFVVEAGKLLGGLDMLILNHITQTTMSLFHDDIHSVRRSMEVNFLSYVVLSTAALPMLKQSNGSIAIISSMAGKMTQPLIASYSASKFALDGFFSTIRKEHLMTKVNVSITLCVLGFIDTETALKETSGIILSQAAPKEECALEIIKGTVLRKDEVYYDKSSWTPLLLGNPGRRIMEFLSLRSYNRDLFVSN

Substance | production of 3H-corticosterone from 3H-11-dehydrocorticosterone, incubation media, compared to nonsense oligomers ([1]; incubation media) | production of 3H-corticosterone from 3H-11-dehydrocorticosterone, aortic ring tissue, compared to nonsense oligomers ([1]; pooled aortic ring tissue) | expression of 11β-HSD1 isoform by RT-PCR [2] | conversion of corticosterone to 11-dehydrocorticosterone, lower than with 11β-HSD1 nonsense oligomers [3] [%] | contractile response to phenylephrine compared to corticosterone plus nonsense oligomers [4] | reduction in the conversion of corticosterone to 11-dehydrocorticosterone compared to 11β-HSD2 nonsense [5] [%] | expression of 11β-HSD2 isoform by RT-PCR [6]
11β-HSD1 antisense: Antisense phosphorothioate oligonucleotide blocking 11β-HSD1 gene expression, 5′-CATAACTGCCGTCCAACAGC-3′ (antisense CATAACTGCCGTCCAACAGC; all phosphorothioate, sugars by position and methylation of C not given here) | markedly reduced | markedly lower | down-regulate | 21 | significantly increased | – | –
11β-HSD2 antisense: Antisense phosphorothioate oligonucleotide blocking 11β-HSD2 gene expression, 5′-AGGCCAGCGCTCCATGACTT-3′ (antisense AGGCCAGCGCTCCATGACTT; all phosphorothioate, sugars by position and methylation of C not given here) | – | – | – | – | statistically significant increase | 24 | down-regulate
